Results published in ChEMBL document CHEMBL2202996, “Synthesis, evaluation, and radiolabeling of new potent positive allosteric modulators of the metabotropic glutamate receptor 2 as potential tracers for positron emission tomography imaging” (J Med Chem, 2012).

Legend:
Liver microsomes [1] = assay: Drug metabolism in rat liver microsomes assessed as M+O oxidative metabolite; type: ADME, Microsome
Liver microsomes [2] = assay: Drug metabolism in human liver microsomes assessed as M+O oxidative metabolite; type: ADME, Microsome
[3] = molecular target: T1, Metabotropic glutamate receptor 2 (Homo sapiens, UniProt Q14416); assay: Agonist activity at human mGLuR2 expressed in CHO cell membrane assessed as […] after 30 mins by scintillation counting relative to control; type: functional, cell membranes
Target sequence in this assay (Q14416 19-872 limits assumed): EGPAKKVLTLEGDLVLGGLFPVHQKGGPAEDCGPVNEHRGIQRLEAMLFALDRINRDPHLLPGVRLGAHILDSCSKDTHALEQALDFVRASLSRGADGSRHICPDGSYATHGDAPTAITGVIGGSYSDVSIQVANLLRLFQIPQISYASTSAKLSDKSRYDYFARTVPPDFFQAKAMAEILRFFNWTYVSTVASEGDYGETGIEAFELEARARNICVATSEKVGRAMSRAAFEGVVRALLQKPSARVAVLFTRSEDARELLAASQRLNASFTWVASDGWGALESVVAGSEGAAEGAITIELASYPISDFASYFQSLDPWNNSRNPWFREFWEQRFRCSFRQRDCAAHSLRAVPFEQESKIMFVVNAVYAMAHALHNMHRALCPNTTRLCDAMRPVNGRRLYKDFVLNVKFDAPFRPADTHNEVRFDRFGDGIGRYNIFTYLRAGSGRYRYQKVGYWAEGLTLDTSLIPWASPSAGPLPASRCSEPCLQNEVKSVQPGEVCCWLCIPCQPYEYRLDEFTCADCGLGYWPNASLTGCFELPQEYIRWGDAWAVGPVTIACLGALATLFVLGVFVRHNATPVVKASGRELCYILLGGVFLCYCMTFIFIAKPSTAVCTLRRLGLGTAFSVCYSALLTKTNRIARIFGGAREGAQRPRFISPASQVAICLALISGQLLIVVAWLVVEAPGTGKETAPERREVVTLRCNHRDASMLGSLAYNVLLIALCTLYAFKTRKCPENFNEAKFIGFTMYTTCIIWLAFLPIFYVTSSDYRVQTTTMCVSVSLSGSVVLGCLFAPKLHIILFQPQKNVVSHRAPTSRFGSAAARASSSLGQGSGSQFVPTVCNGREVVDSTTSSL

[4] = Fraction unbound in rat plasma; type: ADME, cell-free
Liver microsomes [5] = assay: Drug metabolism in rat liver microsomes assessed as O-methylated compound derivative; type: ADME, Microsome
[6] = Fraction unbound in human plasma; type: ADME, cell-free
Liver microsomes [7] = assay: Drug metabolism in human liver microsomes assessed as O-methylated compound derivative; type: ADME, Microsome
HEK293 [8] = assay: Selectivity ratio for human mGluR1 expressed in HEK293 cells to human mGluR2 expressed in CHO cell membranes; type: cell-based
HEK293 [9] = assay: Selectivity ratio for human mGluR7 expressed in HEK293 cells to human mGluR2 expressed in CHO cell membranes; type: cell-based
HEK293 [10] = assay: Selectivity ratio for human mGluR5 expressed in HEK293 cells to human mGluR2 expressed in CHO cell membranes; type: cell-based
CHO [11] = assay: Selectivity ratio for human mGluR4 to human mGluR2 expressed in CHO cell membranes; type: cell-based
HEK293 [12] = assay: Selectivity ratio for human mGluR3 expressed in HEK293 cells to human mGluR2 expressed in CHO cell membranes; type: cell-based
CHO [13] = assay: Selectivity ratio for rat mGluR6 to human mGluR2 expressed in CHO cell membranes; type: cell-based
HEK293 [14] = assay: Selectivity ratio for human mGluR8 expressed in HEK293 cells to human mGluR2 expressed in CHO cell membranes; type: cell-based
[15] = molecular target: T1, Metabotropic glutamate receptor 2; assay: Agonist activity at human mGLuR2 expressed in CHO cell membrane assessed as […] after 30 mins by scintillation counting; type: functional, cell membranes; details: read-out: EC50
Target sequence in this assay (Q14416 whole entry): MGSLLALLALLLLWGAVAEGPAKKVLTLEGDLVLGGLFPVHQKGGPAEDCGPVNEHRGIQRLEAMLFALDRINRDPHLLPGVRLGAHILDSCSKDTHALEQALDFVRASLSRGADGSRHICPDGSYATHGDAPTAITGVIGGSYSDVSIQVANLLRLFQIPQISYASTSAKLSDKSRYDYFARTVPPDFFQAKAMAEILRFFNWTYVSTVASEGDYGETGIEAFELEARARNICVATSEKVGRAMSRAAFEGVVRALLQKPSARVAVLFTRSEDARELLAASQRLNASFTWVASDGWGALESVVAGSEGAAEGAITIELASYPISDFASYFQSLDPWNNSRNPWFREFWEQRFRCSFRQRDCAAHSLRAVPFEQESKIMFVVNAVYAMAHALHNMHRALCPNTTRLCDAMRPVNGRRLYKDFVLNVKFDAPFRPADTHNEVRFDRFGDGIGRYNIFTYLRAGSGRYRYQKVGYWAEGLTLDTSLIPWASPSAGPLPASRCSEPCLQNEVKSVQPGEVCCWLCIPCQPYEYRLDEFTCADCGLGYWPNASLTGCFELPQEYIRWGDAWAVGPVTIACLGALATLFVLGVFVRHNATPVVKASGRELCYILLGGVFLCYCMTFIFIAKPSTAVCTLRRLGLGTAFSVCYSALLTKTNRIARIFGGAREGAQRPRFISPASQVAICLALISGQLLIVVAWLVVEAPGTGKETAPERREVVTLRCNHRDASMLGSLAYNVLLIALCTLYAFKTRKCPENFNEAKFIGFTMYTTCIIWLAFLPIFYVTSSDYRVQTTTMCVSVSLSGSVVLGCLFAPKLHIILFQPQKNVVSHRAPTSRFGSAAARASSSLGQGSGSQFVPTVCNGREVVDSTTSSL

Cerebrum [16] = assay: Ratio of SUV in cerebrum in iv dosed Wistar at 2 mins post administration by gamma counting to SUV in cerebrum in iv dosed Wistar at 30 mins post administration by gamma counting; type: ADME, organism-based; details: rat, in vivo
Cerebrum [17] = assay: Biodistribution in Wistar rat cerebrum at 22 Mbq, iv measured at 2 mins post administration by gamma counting; type: ADME, organism-based; details: in vivo
Rattus norvegicus = assay: Biodistribution in Wistar rat urinary system at 22 Mbq, iv measured at 60 mins post administration by gamma counting; type: ADME, organism-based, Urine; details: in vivo, 1 h
Striatum = assay: Ratio of SUV in striatum in iv dosed Wistar at 2 mins post administration by gamma counting to SUV in striatum in iv dosed Wistar at 30 mins post administration by gamma counting; type: ADME, organism-based; details: rat, in vivo
Cortex = assay: Ratio of SUV in cortex in iv dosed Wistar at 2 mins post administration by gamma counting to SUV in cortex in iv dosed Wistar at 30 mins post administration by gamma counting; type: ADME, organism-based; details: rat, in vivo
Cerebellum [18] = assay: Biodistribution in Wistar rat cerebellum at 22 Mbq, iv measured at 2 mins post administration by gamma counting; type: ADME, organism-based; details: in vivo
Brain [19] = assay: Ratio of SUV in total brain in iv dosed Wistar at 2 mins post administration by gamma counting to SUV in total brain in iv dosed Wistar at 30 mins post administration by gamma counting; type: ADME, organism-based; details: rat, in vivo
Brain [20] = assay: Biodistribution in Wistar rat brain at 22 Mbq, iv measured at 2 mins post administration by gamma counting; type: ADME, organism-based; details: in vivo
Liver = assay: Biodistribution in Wistar rat liver at 22 Mbq, iv measured at 60 mins post administration by gamma counting; type: ADME, organism-based; details: in vivo, 1 h
Hippocampus = assay: Ratio of SUV in hippocampus in iv dosed Wistar at 2 mins post administration by gamma counting to SUV in hippocampus in iv dosed Wistar at 30 mins post administration by gamma counting; type: ADME, organism-based; details: rat, in vivo
Cerebellum [21] = assay: Ratio of SUV in cerebellum in iv dosed Wistar at 2 mins post administration by gamma counting to SUV in cerebellum in iv dosed Wistar at 30 mins post administration by gamma counting; type: ADME, organism-based; details: rat, in vivo
Intestine = assay: Biodistribution in Wistar rat intestine at 22 Mbq, iv measured at 60 mins post administration by gamma counting; type: ADME, organism-based; details: in vivo, 1 h
[22] = molecular target: T2, Sodium-dependent dopamine transporter (Homo sapiens, UniProt Q01959); assay: Binding affinity to DAT at 10 uM by CEREP assay
T2 sequence (Q01959 whole entry): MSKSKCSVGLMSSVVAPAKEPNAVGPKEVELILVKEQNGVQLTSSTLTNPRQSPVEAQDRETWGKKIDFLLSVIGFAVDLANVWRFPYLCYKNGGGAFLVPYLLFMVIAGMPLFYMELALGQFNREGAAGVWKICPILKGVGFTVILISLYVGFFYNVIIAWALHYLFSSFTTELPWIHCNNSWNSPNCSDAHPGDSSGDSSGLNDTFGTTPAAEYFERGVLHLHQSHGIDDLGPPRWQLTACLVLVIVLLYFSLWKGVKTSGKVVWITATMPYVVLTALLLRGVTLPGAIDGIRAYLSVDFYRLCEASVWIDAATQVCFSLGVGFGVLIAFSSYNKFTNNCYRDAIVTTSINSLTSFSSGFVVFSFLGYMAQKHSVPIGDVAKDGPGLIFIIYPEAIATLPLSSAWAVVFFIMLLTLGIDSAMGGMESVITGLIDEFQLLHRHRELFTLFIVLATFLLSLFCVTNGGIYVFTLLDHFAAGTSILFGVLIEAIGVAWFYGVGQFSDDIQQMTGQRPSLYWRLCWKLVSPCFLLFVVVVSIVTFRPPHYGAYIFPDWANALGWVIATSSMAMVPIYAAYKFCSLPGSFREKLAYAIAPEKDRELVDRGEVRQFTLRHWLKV

[23] = molecular target: T2, Sodium-dependent dopamine transporter; assay: Binding affinity to DAT
D(1A) dopamine receptor [24] = molecular target: T3, D(1A) dopamine receptor (Homo sapiens, UniProt P21728); assay: Binding affinity to dopamine D1 receptor
T3 sequence (P21728 whole entry): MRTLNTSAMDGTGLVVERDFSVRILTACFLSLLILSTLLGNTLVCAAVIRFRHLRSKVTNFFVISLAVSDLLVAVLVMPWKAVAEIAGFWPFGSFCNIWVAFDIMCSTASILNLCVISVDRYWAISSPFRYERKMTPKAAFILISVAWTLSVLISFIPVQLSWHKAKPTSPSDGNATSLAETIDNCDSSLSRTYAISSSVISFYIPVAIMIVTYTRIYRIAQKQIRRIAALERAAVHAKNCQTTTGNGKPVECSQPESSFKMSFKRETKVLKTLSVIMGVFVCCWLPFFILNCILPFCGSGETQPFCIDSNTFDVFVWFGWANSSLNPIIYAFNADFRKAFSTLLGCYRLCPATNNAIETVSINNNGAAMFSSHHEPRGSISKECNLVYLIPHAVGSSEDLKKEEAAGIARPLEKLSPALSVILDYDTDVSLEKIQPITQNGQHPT

[25] = molecular target: T1, Metabotropic glutamate receptor 2; assay: Displacement of [3H]JNJ-40068782 from human mGLuR2 expressed in CHO cell membrane after 60 mins by liquid scintillation counting; type: cell membranes
Target sequence in this assay (Q14416 whole entry): as the sequence (Q14416 whole entry) above

D(1A) dopamine receptor [26] = molecular target: T3, D(1A) dopamine receptor; assay: Binding affinity to dopamine D1 receptor at 10 uM by CEREP assay

| SMILES | Drug metabolism (Liver microsomes [1]) | Drug metabolism (Liver microsomes [2]) | Emax [3] [%] | fraction unbound [4] | Drug metabolism (Liver microsomes [5]) | fraction unbound [6] | Drug metabolism (Liver microsomes [7]) | EC50 [15] [nM] | IC50 [25] [nM] | Selectivity ratio (HEK293 [8]) | Selectivity ratio (HEK293 [9]) | Selectivity ratio (HEK293 [10]) | Selectivity ratio (CHO [11]) | Selectivity ratio (HEK293 [12]) | Selectivity ratio (CHO [13]) | Selectivity ratio (HEK293 [14]) | also measured |
| --- | --- | --- | --- | --- | --- | --- | --- | --- | --- | --- | --- | --- | --- | --- | --- | --- | --- |
| COc1ccccc1C1CCN(c2ccn3c(CC4CC4)nnc3c2Cl)CC1 | Active | Active | 345 | < 0.01 | Active | < 0.01 | Active |  |  |  |  |  |  |  |  |  |  |
| COc1c(F)ccc(F)c1C1CCN(c2ccn3c(CC4CC4)nnc3c2C(F)(F)F)CC1 | Active | Active | 421 | < 0.01 | Active | < 0.01 | Active |  |  | > 350 | > 350 | > 350 | > 350 | > 350 | > 350 | > 350 |  |
| COc1c(F)cccc1C1CCN(c2ccn3c(CC4CC4)nnc3c2C(F)(F)F)CC1 | Active | Active | 528 | < 0.01 | Active | < 0.01 | Active | 11 |  |  |  |  |  |  |  |  |  |
| [11CH3]Oc1cccc(F)c1C1CCN(c2ccn3c(CC4CC4)nnc3c2Cl)CC1 |  |  |  |  |  |  |  |  |  |  |  |  |  |  |  |  | Ratio (Cerebrum [16]): 0.6; Drug uptake (Cerebrum [17]): 0.45 %ID; Drug uptake (Rattus norvegicus): Active; Ratio (Striatum): 0.59; Ratio (Cortex): 0.71; Drug uptake (Cerebellum [18]): 0.17 %ID; Ratio (Brain [19]): 0.72; Drug uptake (Brain [20]): 0.65 %ID; Drug uptake (Liver): Active; Ratio (Hippocampus): 0.63; Ratio (Cerebellum [21]): 0.71; Drug uptake (Intestine): Active |
| COc1c(F)ccc(F)c1C1CCN(c2ccn3c(CC4CC4)nnc3c2Cl)CC1 | Active | Active | 282 | < 0.01 | Active | < 0.01 | Active | 7.5 | 9.23 | > 350 | > 350 | > 350 | > 350 | > 350 | > 350 | > 350 | Activity [22]: 52%; Ki [23]: > 8500 nM; Ki (D(1A) dopamine receptor [24]): ≥ 6200 nM; Activity (D(1A) dopamine receptor [26]): 76% |
| COc1ccc(F)cc1C1CCN(c2ccn3c(CC(F)(F)F)nnc3c2Cl)CC1 | Active | Active | 340 | < 0.01 | Active | < 0.01 | Active |  |  |  |  |  |  |  |  |  |  |

The next lines start with results.

| Drug metabolism (Liver microsomes [1]) | Drug metabolism (Liver microsomes [2]) | Emax [3] [%] | fraction unbound [4] | Drug metabolism (Liver microsomes [5]) | fraction unbound [6] | Drug metabolism (Liver microsomes [7]) | EC50 [15] [nM] | IC50 [25] [nM] | SMILES | Selectivity ratio (HEK293 [8]) | Selectivity ratio (HEK293 [9]) | Selectivity ratio (HEK293 [10]) | Selectivity ratio (CHO [11]) | Selectivity ratio (HEK293 [12]) | Selectivity ratio (CHO [13]) | Selectivity ratio (HEK293 [14]) | also measured |
| --- | --- | --- | --- | --- | --- | --- | --- | --- | --- | --- | --- | --- | --- | --- | --- | --- | --- |
| Active | Active | 258 | < 0.01 | Active | < 0.01 | Active |  | 7.3 | COc1ccc(F)c(F)c1C1CCN(c2ccn3c(CC4CC4)nnc3c2Cl)CC1 | > 350 | > 350 | > 350 | > 350 | 70 | > 350 | > 350 |  |
| Active | Active | 342 | < 0.01 | Active | < 0.01 | Active | 26 |  | COc1c(C2CCN(c3ccn4c(CC5CC5)nnc4c3Cl)CC2)ccc(F)c1F |  |  |  |  |  |  |  |  |
| Active | Active | 304 | < 0.01 | Active | < 0.01 | Active |  | 11.2 | COc1cccc(F)c1C1CCN(c2ccn3c(CC4CC4)nnc3c2Cl)CC1 | > 350 | > 350 | > 350 | > 350 | > 350 | > 350 | > 350 |  |
